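Cultured in 96-well plates, cells were exposed to test compound for 48 hours across five concentrations. GI50 marks 50% less growth. TGI: concentration producing complete growth inhibition.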
Tests used:
Experiment in all cases: DTP human tumour cell line panel, 48 h
A498 renal = test system: A498 renal
ACHN renal = test system: ACHN renal
CCRF-CEM leukemia = test system: CCRF-CEM leukemia
DU-145 prostate = test system: DU-145 prostate
HCC-2998 colon = test system: HCC-2998 colon
HCT-15 colon = test system: HCT-15 colon
HL-60(TB) leukemia = test system: HL-60(TB) leukemia
HOP-92 NSCLC = test system: HOP-92 NSCLC
HS 578T breast = test system: HS 578T breast
K-562 leukemia = test system: K-562 leukemia
LOX IMVI melanoma = test system: LOX IMVI melanoma
MDA-MB-231 breast = test system: MDA-MB-231 breast
MDA-MB-435 = test system: MDA-MB-435
MOLT-4 leukemia = test system: MOLT-4 leukemia
NCI-H23 lung = test system: NCI-H23 lung
NCI/ADR-RES ovarian = test system: NCI/ADR-RES ovarian
OVCAR-5 ovarian = test system: OVCAR-5 ovarian
PC-3 prostate = test system: PC-3 prostate
RPMI-8226 leukemia = test system: RPMI-8226 leukemia
SF-295 CNS = test system: SF-295 CNS
SF-539 CNS = test system: SF-539 CNS
SK-MEL-28 melanoma = test system: SK-MEL-28 melanoma
SK-MEL-5 melanoma = test system: SK-MEL-5 melanoma
SK-OV-3 ovarian = test system: SK-OV-3 ovarian
SN12C renal = test system: SN12C renal
SNB-75 CNS = test system: SNB-75 CNS
SR leukemia = test system: SR leukemia
SW-620 colon = test system: SW-620 colon
UACC-257 melanoma = test system: UACC-257 melanoma
UACC-62 melanoma = test system: UACC-62 melanoma
UO-31 renal = test system: UO-31 renal

## IP(CCCCCCCCCCSc1n(Cc2ccc3ccccc3c2)c(-c2ccccc2)c(-c2ccccc2)[n+]1Cc1ccc2ccccc2c1)(c1ccccc1)(c1ccccc1)c1ccccc1
A498 renal
  GI50: 1350 nM
  TGI: 3020 nM
ACHN renal
  GI50: 1820 nM
  TGI: 3640 nM
CCRF-CEM leukemia
  GI50: 489 nM
  TGI: 1950 nM
DU-145 prostate
  GI50: 748 nM
  TGI: 2190 nM
HCC-2998 colon
  GI50: 531 nM
  TGI: 1920 nM
HCT-15 colon
  GI50: 1790 nM
  TGI: 3420 nM
HL-60(TB) leukemia
  GI50: 189 nM
  TGI: 438 nM
HOP-92 NSCLC
  GI50: 240 nM
  TGI: 932 nM
HS 578T breast
  GI50: 670 nM
  TGI: 3960 nM
K-562 leukemia
  GI50: 411 nM
  TGI: 1840 nM
LOX IMVI melanoma
  GI50: 553 nM
  TGI: 1820 nM
MDA-MB-231 breast
  GI50: 318 nM
  TGI: 1260 nM
MDA-MB-435
  GI50: 403 nM
  TGI: 1590 nM
MOLT-4 leukemia
  GI50: 541 nM
  TGI: 2310 nM
NCI-H23 lung
  GI50: 322 nM
  TGI: 1320 nM
NCI/ADR-RES ovarian
  GI50: 3940 nM
  TGI: 23600 nM
OVCAR-5 ovarian
  GI50: 1500 nM
  TGI: 3000 nM
PC-3 prostate
  GI50: 415 nM
  TGI: 1730 nM
RPMI-8226 leukemia
  GI50: 337 nM
  TGI: 1500 nM
SF-295 CNS
  GI50: 1570 nM
  TGI: 3100 nM
SF-539 CNS
  GI50: 771 nM
  TGI: 2150 nM
SK-MEL-28 melanoma
  GI50: 764 nM
  TGI: 2140 nM
SK-MEL-5 melanoma
  GI50: 1100 nM
  TGI: 2310 nM
SK-OV-3 ovarian
  GI50: 714 nM
  TGI: 2170 nM
SN12C renal
  GI50: 399 nM
  TGI: 1540 nM
SNB-75 CNS
  GI50: 389 nM
  TGI: 1890 nM
SR leukemia
  GI50: 347 nM
  TGI: 1720 nM
SW-620 colon
  GI50: 794 nM
  TGI: 2160 nM
UACC-257 melanoma
  GI50: 412 nM
  TGI: 1700 nM
UACC-62 melanoma
  GI50: 562 nM
  TGI: 2020 nM
UO-31 renal
  GI50: 1820 nM
  TGI: 4890 nM

Source: PubChem BioAssay (NCI)
